One assay addresses T1, HDAC1 (Homo sapiens, UniProt Q13547).
T1 construct: purchased Enzo Biochem Inc
Kind of assay: In vitro HDAC1 inhibitory activity, FLUOR DE LYS HDAC1 fluorometric assay kit. The settings on record: HDAC1 enzyme activity in vitro. Format: biochemical. An excerpt:
The principle was shown in the following reaction formula: HDAC1 catalyzes the deacetylation of a substrate FLUOR DE LYS® Substrate (containing an acetylated side chain), the product can react with FLUOR DE LYS® Developer II to generate fluorescence (shown in the following reaction process), and the inhibitory activity of a molecule to be detected on HDAC1 can be indirectly obtained by detecting the fluorescence intensity of the product. In this experiment, 360 nm was selected as the excitation wavelength and 460 nm as the emission wavelength for detection. FLUOR DE LYS® HDAC1 fluorometric drug discovery assay kit required for experiments was purchased from Enzo Biochem Inc.
During the test, the sample was prepared according to the specific experimental conditions of blocking the HDAC1 enzyme activity of the compound of the present invention in vitro in accordance with Table 2 below.

Assay [1] relates to human breast cancer cell line MDA-MB-231. Kind of assay: MTT tumor cell proliferation. It is filed as cell-based. The settings on record: Homo sapiens, 72 h. An excerpt:
(§1) MTT colorimetric method was used to detect the inhibitory activity of a series of compounds (i.e. ZZY-001 to ZZY-016, a total of 16 kinds) of the embodiment of the present invention on the proliferation of tumor cells in vitro. The full name of MTT is 3-(4,5-dimethyl-2-thiazolyl)-2,5-diphenyl-2-H-tetrazolium romide, which is a yellow dye also known as thiazolyl blue. […] DMSO can dissolve Formazan deposited in cells and the absorbance value can be measured with a enzyme marker at a wavelength of 490 nm. In a certain range of cell number, the production of Formazan is proportional to the number of cells, so the number of living cells can be inferred according to the measured OD value.
In the experiments of this embodiment, the selected cell lines are human breast cancer cell line MDA-MB-231 and BT-474, human colon adenocarcinoma cell HCT116, mouse colon cancer cell CT26.WT, mouse breast cancer cell 4T1. During the test, the cells in logarithmic phase and in good condition were digested with 0.25% trypsin digestion solution to make the adherent cells fall off, and the cell suspension (suspension cells without trypsin digestion) was made by counting 2-4×10^4 cells/ml. The cell suspension was inoculated on a 96-well plate at 100 μl/well and cultured in a constant temperature CO2 incubator for 24 h. Then the tested drugs were added, 100 μl/well, and cultured for 72 h. MTT was added to a 96-well plate, 20 μl/well, and reacted for 4 h in the incubator. Absorb the supernatant, add DMSO, 150 μl/well and shake for 10 min on the plate shaker. The optical density (OD value) of each well was measured by enzyme marker at the wavelength of 490 nm. […]

Assay [2] has as its system mouse colon cancer cell CT26.WT. Kind of assay: MTT tumor cell proliferation. The following applies: Mus musculus, 72 h. Format: cell-based.
Source text: as §1
(§2) The cell suspension was inoculated on a 96-well plate at 100 μl/well and cultured in a constant temperature CO2 incubator for 24 h. Then the tested drugs were added, 100 μl/well, and cultured for 72 h. MTT was added to a 96-well plate, 20 μl/well, and reacted for 4 h in the incubator. Absorb the supernatant, add DMSO, 150 μl/well and shake for 10 min on the plate shaker. The optical density (OD value) of each well was measured by enzyme marker at the wavelength of 490 nm.

Assay [3] concerns human breast cancer cell line BT-474. Kind of assay: MTT tumor cell proliferation. Format: cell-based. The settings on record: Homo sapiens, 72 h.
Source text: as §1, §2

Assay [4] deals with mouse breast cancer cell 4T1. Kind of assay: MTT tumor cell proliferation. Format: cell-based. The following applies: Mus musculus, 72 h.
Source text: as §1, §2

For assay [5], the system named is human colon adenocarcinoma cell HCT116. Kind of assay: MTT tumor cell proliferation. The following applies: Homo sapiens, HCT-116, 72 h. Format: cell-based.
Source text: as §1, §2

T1 sequence (Q13547 whole entry): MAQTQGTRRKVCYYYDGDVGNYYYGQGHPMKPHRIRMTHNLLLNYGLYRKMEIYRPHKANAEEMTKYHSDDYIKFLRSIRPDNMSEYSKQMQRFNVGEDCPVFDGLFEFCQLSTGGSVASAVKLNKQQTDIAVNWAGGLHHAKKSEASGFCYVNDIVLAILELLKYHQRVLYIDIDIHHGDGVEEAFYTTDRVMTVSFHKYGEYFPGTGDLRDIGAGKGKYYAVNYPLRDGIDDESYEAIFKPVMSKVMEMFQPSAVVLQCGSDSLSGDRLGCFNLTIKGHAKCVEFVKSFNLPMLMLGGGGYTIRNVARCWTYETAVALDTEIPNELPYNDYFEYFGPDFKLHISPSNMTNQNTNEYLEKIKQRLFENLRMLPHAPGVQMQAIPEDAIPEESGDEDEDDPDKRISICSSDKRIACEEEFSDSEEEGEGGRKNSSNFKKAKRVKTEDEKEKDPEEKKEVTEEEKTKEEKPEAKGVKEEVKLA

In general, IC50 refers to the midpoint of a concentration-inhibition curve. A low value points to higher potency. Turning to `Cc1ccc(C(=O)Nc2cc(N3CCNCC3)ccc2-c2ccc(/C=C/C(=O)NO)cc2C)cc1.Cl` [ZZY-003], the IC50 amounted to 180 nM against HDAC1; 836 nM in assay [1]; 8760 nM in assay [2]; 1860 nM in assay [3]; 2380 nM in assay [4]; 265 nM in assay [5].

The values are drawn from patent publication US20200331882A1, “COMPOUND FOR SIMULTANEOUSLY INHIBITING LSD1 AND HDAC TARGETS AND APPLICATION THEREOF” (PEKING UNIVERSITY SHENZHEN GRADUATE SCHOOL, priority 2018, published 2020).
